The values below come from US20230107642A1 (Erasca, Inc., priority 2020, published 2023).

SMILES strings stand for the structures.

Test system in the first series: not listed separately
Briefly: Determination of total drug concentration in rat brain (BBB penetration). The class given is in vivo. Conditions: male SD rat, 2 mg/kg IV infusion for 4 hours, brain collected at end of 4 hours. How it is done: BB. Example 9: Determination of Total Drug Concentration in Rat Brain
In Vivo Experimental Procedures
Infuse male SD rat at 2 mg/kg dose for 4 hours through IV administration route. Collect brain tissues at the end of 4 hours.
Sample Preparation Procedures
Dilute brain tissue by adding homogenization solvent (1:4, w/v). Homogenize diluted brain tissue samples. Extract analyte by adding organic solvent (1:4, v/v) with spiked internal standard. Vortex and centrifuge the samples. Remove supernatant and dilute with HPLC compatible solvent (1:3, v/v).
Inject diluted extract into LC-MS/MS system using reversed phase high performance liquid chromatography coupled with electrospray ionization and selected reaction monitoring. Determine the total drug concentration in brain samples by quantitating against the standard curve prepared using the same matrix.
The following data provides blood brain barrier (BBB) penetration activity for a selection of inventive compounds where were directly compared to sotorasib and adagrasib (concentration in brain measured in ng/g).
Compounds that were measured as having a total concentration in the brain of at least 60 ng/g are indicated as “+”.
In the case of `C=CC(=O)N1C[C@H](C)N(c2nc(=O)n3c4c(c(-c5ccc(F)cc5F)c(C(F)(F)F)cc24)OC[C@@H]3COCCOC)C[C@H]1C` [Example 13-91], the BBB activity entry is listed as “− (Compounds that did not meet this threshold are indicated as “−”)”. Consider `C=CC(=O)N1CC2C(=O)N(C)c3cnc4c(F)c(-c5c(O)cccc5F)c(Cl)cc4c3N2C[C@H]1C` (stereo partly shown) [Example 13-32], for which the BBB activity result is on record as “+ (Compounds that were measured as having a total concentration in the brain of at least 60 ng/g are indicated as “+”)”. Consider `C=CC(=O)N1C[C@H](C)N(c2nc(=O)n3c4c(c(-c5ccc(F)cc5F)c(Cl)cc24)OC[C@H]3CCCN2CCC(F)(F)C2)C[C@H]1C` [Example 13-80], for which the BBB activity entry is recorded as “− (Compounds that did not meet this threshold are indicated as “−”)”.

For the compound `C=CC(=O)C1[C@H](C)CN(c2nc(=O)n3c4c(c(-c5ccc(F)cc5)c(C(F)(F)F)cc24)SC[C@@H](OC)C3)C[C@@H]1C` (stereo partly shown) [Example 13-66], the BBB activity entry is given as “− (Compounds that did not meet this threshold are indicated as “−”)”. The same measure, in the same setting: the value for `C=CC(=O)N1CCN(c2nc(=O)n3c4c(c(-c5ccc(F)c(Cl)c5)c(C(F)(F)F)cc24)SC[C@@H](OC)C3)CC1` [Example 13-25] was “+ (Compounds that were measured as having a total concentration in the brain of at least 60 ng/g are indicated as “+”)”; that for `C=CC(=O)N1[C@H](C)CN(c2nc(=O)n3c4c(c(-c5cc(Cl)c(F)cc5F)c(C(F)(F)F)cc24)SC[C@@H](OC)C3)C[C@@H]1C` [Example 13-24] was “+ (Compounds that were measured as having a total concentration in the brain of at least 60 ng/g are indicated as “+”)”.

On to `C=CC(=O)N1C[C@H](C)N(c2nc(=O)n3c4c(c(-c5ccc(F)cc5F)c(Cl)cc24)OCC3CN(C)C)C[C@H]1C` (stereo partly shown) [Example 13-38], for which the BBB activity entry was “+ (Compounds that were measured as having a total concentration in the brain of at least 60 ng/g are indicated as “+”)”.

In a further series the target is T1, Cys12 of the KRAS 4B G12C protein (Homo sapiens, UniProt P01116, G12C).
T1 construct: This protein contained 188 amino acids in total, including an N-terminal 6-Histidine tag; made in house; host or cells: E. coli BL21
Description: In vitro covalent adduct formation (CAF) assay, LC-MS intact mass. The class given is binding. The note with it: 10 uM compound, 60 min. The gist of the method: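 GDP-loaded (>95%) His-TEV-tagged KRAS 4B G12C (residues 1–169), 5 μM in TBS pH 7.4, incubated with 10 μM compound (4% DMSO) at 22° C for one hour. Intact-protein LC-MS gave free:adduct ratios, reported as percent protein modified; duplicate runs.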
On to `C=CC(=O)N1CCN(c2nc(=O)n3c4c(c(-c5ccc(F)cc5)c(C(F)(F)F)cc24)SC[C@@H]3CN2C[C@@H]3C[C@H]2CO3)CC1` [Example 1350, (S)-3-(((1S,4S)-2-oxa-5-azabicyclo[2.2.1]heptan-5-yl)methyl)-7-(4-acryloylpiperazin-1-yl)-10-(4-fluorophenyl)-9-(trifluoromethyl)-2,3-dihydro-5H-[1,4]thiazino[2,3,4-ij]quinazolin-5-one], for which the “% CAF 10 uM @ 60 min” value is on record as 81.3%. Same read-out and setting: the value for `C=CC(=O)N1CCN(c2nc(=O)n3c4c(c(-c5ccc(F)cc5F)c(C(F)(F)F)cc24)SC[C@@H]3CN2CCN(CC)CC2)CC1` (atropisomer, axis not shown) [Example 1317, (3S,10S)-7-(4-acryloylpiperazin-1-yl)-10-(2,4-difluorophenyl)-3-((4-ethylpiperazin-1-yl)methyl)-9-(trifluoromethyl)-2,3-dihydro-5H-[1,4]thiazino[2,3,4-ij]quinazolin-5-one] was 98.3%; that for `[2H]C([2H])([2H])OC[C@H]1CSc2c(-c3cc(Cl)c(F)cc3F)c(C(F)(F)F)cc3c(N4C[C@@H](C)N(C(=O)C=C)[C@@H](C)C4)nc(=O)n1c23` [Example 1417, (3S)-7-((3S,5R)-4-acryloyl-3,5-dimethylpiperazin-1-yl)-10-(5-chloro-2,4-difluorophenyl)-3-((methoxy-d3)methyl)-9-(trifluoromethyl)-2,3-dihydro-5H-[1,4]thiazino[2,3,4-ij]quinazolin-5-one] was 92.5%; that for `C=CC(=O)N1C[C@H](C)N(c2nc(=O)n3c4c(c(-c5cc(Cl)c(F)cc5F)c(C(F)(F)F)cc24)SC[C@@H]3CN2C[C@@H]3C[C@H]2CO3)C[C@H]1C` (atropisomer, axis not shown) [Example 1334, (3S,10R)-3-(((1S,4S)-2-oxa-5-azabicyclo[2.2.1]heptan-5-yl)methyl)-7-((2S,5R)-4-acryloyl-2,5-dimethylpiperazin-1-yl)-10-(5-chloro-2,4-difluorophenyl)-9-(trifluoromethyl)-2,3-dihydro-5H-[1,4]thiazino[2,3,4-ij]quinazolin-5-one] was 80%. Still for that read-out and setting: the value for `C=CC(=O)N1[C@H](C)CN(c2nc(=O)n3c4c(c(-c5cc(Cl)c(F)cc5F)c(C(F)(F)F)cc24)SC[C@@H](N2CCCC2)C3)C[C@@H]1C` (atropisomer, axis not shown) [Example 1440, (3S,11S)-8-((3S,5R)-4-acryloyl-3,5-dimethylpiperazin-1-yl)-11-(5-chloro-2,4-difluorophenyl)-3-(pyrrolidin-1-yl) 10-(trifluoromethyl)-3,4-dihydro-[1,4]thiazepino[2,3,4-ij]quinazolin-6-one] was 51%; that for `C=CC(=O)N1CCN(c2nc(=O)n3c4c(c(-c5ccc(F)c(Cl)c5)c(C(F)(F)F)cc24)SC[C@@H]3COC)CC1` [Example 1345, (S)-7-(4-acryloylpiperazin-1-yl)-10-(3-chloro-4-fluorophenyl)-3-(methoxymethyl)-9-(trifluoromethyl)-2,3-dihydro-5H-[1,4]thiazino[2,3,4-ij]quinazolin-5-one] was 90%.

As to `C=CC(=O)N1C[C@H](C)N(c2nc(=O)n3c4c(c(-c5ccc(F)cc5)c(C(F)(F)F)cc24)SC[C@@H]3COCOC)C[C@H]1C` [Example 1328, (S)-7-((2S,5R)-4-acryloyl-2,5-dimethylpiperazin-1-yl)-10-(4-fluorophenyl)-3-((methoxymethoxy)methyl)-9-(trifluoromethyl)-2,3-dihydro-5H-[1,4]thiazino[2,3,4-ij]quinazolin-5-one], the “% CAF 10 uM @ 60 min” value is 93.8%.

The series is the same for the next values; noted with them: 10 uM compound, 60 min incubation.
Regarding `C=CC(=O)N1[C@H](C)CN(c2nc(=O)n3c4c(c(-c5cc(Cl)c(F)cc5F)c(C(F)(F)F)cc24)SCC2(COC2)C3)C[C@@H]1C` [Example 1100, 8′-((3S,5R)-4-acryloyl-3,5-dimethylpiperazin-1-yl)-11′-(5-chloro-2,4-difluorophenyl)-10′-(trifluoromethyl)-2′H,4′H,6′H-spiro[oxetane-3,3′-[1,4]thiazepino [2,3,4-ij]quinazolin]-6′-one], the “% CAF 10 uM @ 60 min” value is recorded as 88.8%.

In the case of `C=CC(=O)N1[C@H](C)CN(c2nc(=O)n3c4c(c(-c5ccc(F)cc5)c(C(F)(F)F)cc24)SC[C@@H]3COC)C[C@@H]1C` [Example 1103, (S)-7-((3S,5R)-4-acryloyl-3,5-dimethylpiperazin-1-yl)-10-(4-fluorophenyl)-3-(methoxymethyl)-9-(trifluoromethyl)-2,3-dihydro-5H-[1,4]thiazino[2,3,4-ij]quinazolin-5-one], the “% CAF 10 uM @ 60 min” value was determined as 98%. Consider `C=CC(=O)N1C[C@H](C)N(c2nc(=O)n3c4c(c(-c5cccc6cnn(C)c56)c(C(F)(F)F)cc24)SC[C@@H]3COC)C[C@H]1C` (atropisomer, axis not shown) [Example 1102, (3S,10S)-7-((2S,5R)-4-acryloyl-2,5-dimethylpiperazin-1-yl)-3-(methoxymethyl)-10-(1-methyl-1H-indazol-7-yl)-9-(trifluoromethyl)-2,3-dihydro-5H-[1,4]thiazino[2,3,4-ij]quinazolin-5-one], for which the “% CAF 10 uM @ 60 min” value turned out to be 94.5%. Turning to `C=CC(=O)N1[C@H](C)CN(c2nc(=O)n3c4c(c(-c5cc(Cl)c(F)cc5F)c(C(F)(F)F)cc24)SC[C@@H]3COC)C[C@@H]1C` (single isomer, unassigned) [Example 1139], the “% CAF 10 uM @ 60 min” value amounted to 95.9%.

The same series, now with this note: 10 μM compound, after 1 hour.
As for `C=CC(=O)N1[C@H](C)CN(c2nc(=O)n3c4c(c(-c5cc(Cl)c(F)cc5F)c(C(F)(F)F)cc24)SC[C@@H](OCC)C3)C[C@@H]1C` [Example 1206, (3S)-8-((3S,5R)-4-acryloyl-3,5-dimethylpiperazin-1-yl)-11-(5-chloro-2,4-difluorophenyl)-3-ethoxy-10-(trifluoromethyl)-3,4-dihydro-2H,6H-[1,4]thiazepino[2,3,4-ij]quinazolin-6-one], the “CAF (% after 1 hour)” value is reported as 92%.

The same series, now with this note: after 60 min.
For the compound `C=CC(=O)N1CCN(c2nc(=O)n3c4c(c(-c5ccc(F)c(Cl)c5)c(C(F)(F)F)cc24)SC[C@H](OC)C3)CC1` [Example 1041, (R)-8-(4-acryloylpiperazin-1-yl)-11-(3-chloro-4-fluorophenyl)-3-methoxy-10-(trifluoromethyl)-3,4-dihydro-2H,6H-[1,4]thiazepino[2,3,4-ij]quinazolin-6-one], the “CAF (% binding after 60 min)” value came out at 97%. On the same count and under the same terms, as for `C=CC(=O)N1[C@H](C)CN(c2nc(=O)n3c4c(c(-c5ccc(F)cc5F)c(C(F)(F)F)cc24)SC[C@@H](OCCN(C)C)C3)C[C@@H]1C` [Example 1034, (3S)-8-((3S,5R)-4-acryloyl-3,5-dimethylpiperazin-1-yl)-11-(2,4-difluorophenyl)-3-(2-(dimethylamino)ethoxy)-10-(trifluoromethyl)-3,4-dihydro-2H,6H-[1,4]thiazepino[2,3,4-ij]quinazolin-6-one], the figure is 97%; as for `C=CC(=O)N1CCN(c2nc(=O)n3c4c(c(-c5ccc(F)c(Cl)c5)c(C(F)(F)F)cc24)SC[C@H](OCCOC)C3)CC1` [Example 1020, (R)-8-(4-acryloylpiperazin-1-yl)-11-(3-chloro-4-fluorophenyl)-3-(2-methoxyethoxy)-10-(trifluoromethyl)-3,4-dihydro-2H,6H-[1,4]thiazepino[2,3,4-ij]quinazolin-6-one], 97%.
